According to paper PMC12373846, “Hemoglobin as a pseudoperoxidase and drug target for oxidative stress-related diseases” (Signal Transduction and Targeted Therapy, 2025):

Experiments:
[1] = system: fGiD mice; experiment: Immunohistochemistry of hippocampal CA1, fGiD mice; format: in vivo, mouse; conditions: fGiD+KDS, 3 mg/kg/day i.p. 16 days, Fig. 4e
[2] = molecular target: T1, CDK11 (Homo sapiens, UniProt Q9BWU1); experiment: KINOMEscan; format: binding; conditions: 10000 nM; read-out: Percent Control
T1 construct: purchased DiscoverX KINOMEscan scanEDGE; Eurofins Cerep SafetyScreen87
Protocol: (§1) The possibility of KDS12025 on kinase off-target, the KINOMEscan panel of scanEDGE assay was conducted in DiscoverX (CA, USA) using a site-directed competition binding with the test compounds. The assay results are given in Supplementary Table 4 and experimental information is available on the DiscoverX web page (www.discoverx.com). Moreover, the Delta SafetyScreen87 panel assay was conducted in Eurofins Discovery (Cerep, France). The assay results are given in Supplementary Table 5 and experimental information is available on the DiscoverX web page (https://www.eurofinsdiscoveryservices.com).

[3] = molecular target: T2, JNK2 (Homo sapiens, UniProt P45984); experiment: KINOMEscan; format: binding; conditions: 10000 nM; read-out: Percent Control
T2 construct: purchased DiscoverX KINOMEscan scanEDGE; Eurofins Cerep SafetyScreen87
Protocol: as §1

[4] = molecular target: T3, PAK1 (Homo sapiens, UniProt Q13153); experiment: KINOMEscan; format: binding; conditions: 10000 nM; read-out: Percent Control
T3 construct: purchased DiscoverX KINOMEscan scanEDGE; Eurofins Cerep SafetyScreen87
Protocol: as §1

[5] = molecular target: T4, BRAF (Homo sapiens, UniProt P15056); experiment: KINOMEscan; format: binding; conditions: 10000 nM; read-out: Percent Control
T4 construct: purchased DiscoverX KINOMEscan scanEDGE; Eurofins Cerep SafetyScreen87
Protocol: as §1

[6] = molecular target: T5, JNK3 (Homo sapiens, UniProt P53779); experiment: KINOMEscan; format: binding; conditions: 10000 nM; read-out: Percent Control
T5 construct: purchased DiscoverX KINOMEscan scanEDGE; Eurofins Cerep SafetyScreen87
Protocol: as §1

[7] = molecular target: T6, ROCK2 (Homo sapiens, UniProt O75116); experiment: KINOMEscan; format: binding; conditions: 10000 nM; read-out: Percent Control
T6 construct: purchased DiscoverX KINOMEscan scanEDGE; Eurofins Cerep SafetyScreen87
Protocol: as §1

[8] = molecular target: T7, EGFR(L858R) (Homo sapiens, UniProt P00533, L858R); experiment: KINOMEscan; format: binding; conditions: 10000 nM; read-out: Percent Control
T7 construct: purchased DiscoverX KINOMEscan scanEDGE; Eurofins Cerep SafetyScreen87
Protocol: as §1

[9] = molecular target: T8, KIT(D816V) (Homo sapiens, UniProt P10721, D816V); experiment: KINOMEscan; format: binding; conditions: 10000 nM; read-out: Percent Control
T8 construct: purchased DiscoverX KINOMEscan scanEDGE; Eurofins Cerep SafetyScreen87
Protocol: as §1

[10] = molecular target: T9, SRC (Homo sapiens, UniProt P12931); experiment: KINOMEscan; format: binding; conditions: 10000 nM; read-out: Percent Control
T9 construct: purchased DiscoverX KINOMEscan scanEDGE; Eurofins Cerep SafetyScreen87
Protocol: as §1

[11] = molecular target: T10, ADCK3 (Homo sapiens, UniProt Q8NI60); experiment: KINOMEscan; format: binding; conditions: 10000 nM; read-out: Percent Control
T10 construct: purchased DiscoverX KINOMEscan scanEDGE; Eurofins Cerep SafetyScreen87
Protocol: as §1

[12] = molecular target: T11, CSF1R (Homo sapiens, UniProt P07333); experiment: KINOMEscan; format: binding; conditions: 10000 nM; read-out: Percent Control
T11 construct: purchased DiscoverX KINOMEscan scanEDGE; Eurofins Cerep SafetyScreen87
Protocol: as §1

[13] = molecular target: T12, FGFR3 (Homo sapiens, UniProt P22607); experiment: KINOMEscan; format: binding; conditions: 10000 nM; read-out: Percent Control
T12 construct: purchased DiscoverX KINOMEscan scanEDGE; Eurofins Cerep SafetyScreen87
Protocol: as §1

[14] = molecular target: T13, CDK2 (Homo sapiens, UniProt P24941); experiment: KINOMEscan; format: binding; conditions: 10000 nM; read-out: Percent Control
T13 construct: purchased DiscoverX KINOMEscan scanEDGE; Eurofins Cerep SafetyScreen87
Protocol: as §1

[15] = molecular target: T14, RAF1 (Homo sapiens, UniProt P04049); experiment: KINOMEscan; format: binding; conditions: 10000 nM; read-out: Percent Control
T14 construct: purchased DiscoverX KINOMEscan scanEDGE; Eurofins Cerep SafetyScreen87
Protocol: as §1

[16] = molecular target: T15, PDGFRB (Homo sapiens, UniProt P09619); experiment: KINOMEscan; format: binding; conditions: 10000 nM; read-out: Percent Control
T15 construct: purchased DiscoverX KINOMEscan scanEDGE; Eurofins Cerep SafetyScreen87
Protocol: as §1

[17] = molecular target: T16, ACVR1B (Homo sapiens, UniProt P36896); experiment: KINOMEscan; format: binding; conditions: 10000 nM; read-out: Percent Control
T16 construct: purchased DiscoverX KINOMEscan scanEDGE; Eurofins Cerep SafetyScreen87
Protocol: as §1

[18] = molecular target: T17, PKAC-alpha (Homo sapiens, UniProt P17612); experiment: KINOMEscan; format: binding; conditions: 10000 nM; read-out: Percent Control
T17 construct: purchased DiscoverX KINOMEscan scanEDGE; Eurofins Cerep SafetyScreen87
Protocol: as §1

[19] = molecular target: T18, SRPK3 (Homo sapiens, UniProt Q9UPE1); experiment: KINOMEscan; format: binding; conditions: 10000 nM; read-out: Percent Control
T18 construct: purchased DiscoverX KINOMEscan scanEDGE; Eurofins Cerep SafetyScreen87
Protocol: as §1

[20] = molecular target: T19, EGFR (Homo sapiens, UniProt P00533); experiment: KINOMEscan; format: binding; conditions: 10000 nM; read-out: Percent Control
T19 construct: purchased DiscoverX KINOMEscan scanEDGE; Eurofins Cerep SafetyScreen87
Protocol: as §1

[21] = molecular target: T20, KIT (Homo sapiens, UniProt P10721); experiment: KINOMEscan; format: binding; conditions: 10000 nM; read-out: Percent Control
T20 construct: purchased DiscoverX KINOMEscan scanEDGE; Eurofins Cerep SafetyScreen87
Protocol: as §1

[22] = molecular target: T21, ABL1(E255K)-phosphorylated (Homo sapiens, UniProt P00519, E255K); experiment: KINOMEscan; format: binding; conditions: 10000 nM; read-out: Percent Control
T21 construct: purchased DiscoverX KINOMEscan scanEDGE; Eurofins Cerep SafetyScreen87
Protocol: as §1

[23] = molecular target: T22, PIM2 (Homo sapiens, UniProt Q9P1W9); experiment: KINOMEscan; format: binding; conditions: 10000 nM; read-out: Percent Control
T22 construct: purchased DiscoverX KINOMEscan scanEDGE; Eurofins Cerep SafetyScreen87
Protocol: as §1

[24] = molecular target: T23, MAPKAPK2 (Homo sapiens, UniProt P49137); experiment: KINOMEscan; format: binding; conditions: 10000 nM; read-out: Percent Control
T23 construct: purchased DiscoverX KINOMEscan scanEDGE; Eurofins Cerep SafetyScreen87
Protocol: as §1

[25] = molecular target: T24, ABL1-nonphosphorylated (Homo sapiens, UniProt P00519); experiment: KINOMEscan; format: binding; conditions: 10000 nM; read-out: Percent Control
T24 construct: purchased DiscoverX KINOMEscan scanEDGE; Eurofins Cerep SafetyScreen87
Protocol: as §1

[26] = system: 97 kinases; experiment: KINOMEscan scanEDGE selectivity score; format: binding, human; conditions: 10000 nM
Protocol: as §1

[27] = system: purified mouse RBCs; experiment: Isolated red blood cell H2O2 assay; format: cell-based; conditions: 1 µM H2O2
Protocol: RBCs were isolated following a modified version of the protocol described by Hanson et al. (2008). Whole blood was collected from male ICR mice (5–6 weeks old) via retro-orbital bleeding under isoflurane anesthesia. Blood was transferred using heparin-coated capillaries into EDTA-coated microcentrifuge tubes and centrifuged at 500 x g for 10 min. Plasma and buffy coat were removed, and the RBC pellet was washed three times with phosphate-buffered saline (PBS) containing 2% fetal bovine serum (FBS) to remove leukocytes and plasma components. The final RBC suspension was adjusted to 5 x 10^3 cells/µL, and cell concentration was verified using an automated hematology analyzer (Horiba Microsemi LC-662).
H2O2 was quantified using the ROS-Glo H2O2 Assay kit (Promega) according to the manufacturer’s protocol. RBCs were dispensed into white 96-well plates at a final volume 70 µL per well. KDS12025 was tested at final concentrations of 0.01, 0.1, and 1 µM, and co-treated with 1 µM H2O2. The ROS-Glo substrate was added simultaneously to all wells. Plates were incubated for 10 min at 37°C. After incubation, ROS-Glo detection reagent was added directly to each well. Plates were then incubated for 20 min at room temperature. Luminescence was measured using a microplate reader (SpectraMax) according to kit settings. Relative luminescence units (RLU) were background-subtracted and normalized to the RBC+ H2O2 only control group. All conditions were tested in triplicate. Results present the combined average of two independent experiments; each performed with the same experimental layout and controls.

T8 sequence (P10721 26-976 D816V): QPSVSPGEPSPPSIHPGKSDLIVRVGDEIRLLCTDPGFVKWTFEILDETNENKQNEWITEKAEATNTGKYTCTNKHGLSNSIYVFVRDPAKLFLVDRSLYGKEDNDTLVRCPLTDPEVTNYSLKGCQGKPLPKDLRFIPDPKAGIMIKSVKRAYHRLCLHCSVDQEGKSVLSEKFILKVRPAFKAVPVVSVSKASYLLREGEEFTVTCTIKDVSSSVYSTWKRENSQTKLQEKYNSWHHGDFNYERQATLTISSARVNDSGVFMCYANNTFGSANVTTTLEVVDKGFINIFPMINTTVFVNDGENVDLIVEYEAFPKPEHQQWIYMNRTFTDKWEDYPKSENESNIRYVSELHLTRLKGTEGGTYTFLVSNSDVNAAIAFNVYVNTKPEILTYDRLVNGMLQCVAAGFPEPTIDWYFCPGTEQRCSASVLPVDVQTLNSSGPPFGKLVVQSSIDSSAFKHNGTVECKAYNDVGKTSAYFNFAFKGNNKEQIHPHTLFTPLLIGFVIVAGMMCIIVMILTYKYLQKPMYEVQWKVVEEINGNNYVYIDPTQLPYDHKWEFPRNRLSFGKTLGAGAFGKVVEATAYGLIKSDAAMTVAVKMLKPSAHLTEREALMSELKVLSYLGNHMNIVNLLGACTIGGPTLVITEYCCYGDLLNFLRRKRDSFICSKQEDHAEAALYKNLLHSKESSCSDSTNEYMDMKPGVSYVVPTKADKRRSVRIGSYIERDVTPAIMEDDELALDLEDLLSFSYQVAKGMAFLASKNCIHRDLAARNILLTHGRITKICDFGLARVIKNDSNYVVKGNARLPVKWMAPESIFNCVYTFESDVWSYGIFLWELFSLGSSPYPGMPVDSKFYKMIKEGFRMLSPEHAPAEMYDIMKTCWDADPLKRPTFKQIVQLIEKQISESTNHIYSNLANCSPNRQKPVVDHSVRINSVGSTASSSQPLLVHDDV
T1 sequence (Q9BWU1 whole entry): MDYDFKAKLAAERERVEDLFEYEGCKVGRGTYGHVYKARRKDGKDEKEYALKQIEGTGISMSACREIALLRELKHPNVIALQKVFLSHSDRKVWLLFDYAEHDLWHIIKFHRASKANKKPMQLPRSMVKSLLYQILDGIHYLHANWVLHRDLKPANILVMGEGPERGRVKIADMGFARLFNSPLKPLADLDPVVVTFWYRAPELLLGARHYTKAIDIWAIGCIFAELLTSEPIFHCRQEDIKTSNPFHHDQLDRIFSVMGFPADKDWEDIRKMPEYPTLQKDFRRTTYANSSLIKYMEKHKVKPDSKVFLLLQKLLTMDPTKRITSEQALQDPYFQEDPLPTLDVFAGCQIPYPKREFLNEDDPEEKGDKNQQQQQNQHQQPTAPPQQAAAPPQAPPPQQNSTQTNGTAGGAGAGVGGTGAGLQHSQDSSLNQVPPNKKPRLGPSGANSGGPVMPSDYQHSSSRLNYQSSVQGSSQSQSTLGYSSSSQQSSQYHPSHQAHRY
T11 sequence (P07333 20-972): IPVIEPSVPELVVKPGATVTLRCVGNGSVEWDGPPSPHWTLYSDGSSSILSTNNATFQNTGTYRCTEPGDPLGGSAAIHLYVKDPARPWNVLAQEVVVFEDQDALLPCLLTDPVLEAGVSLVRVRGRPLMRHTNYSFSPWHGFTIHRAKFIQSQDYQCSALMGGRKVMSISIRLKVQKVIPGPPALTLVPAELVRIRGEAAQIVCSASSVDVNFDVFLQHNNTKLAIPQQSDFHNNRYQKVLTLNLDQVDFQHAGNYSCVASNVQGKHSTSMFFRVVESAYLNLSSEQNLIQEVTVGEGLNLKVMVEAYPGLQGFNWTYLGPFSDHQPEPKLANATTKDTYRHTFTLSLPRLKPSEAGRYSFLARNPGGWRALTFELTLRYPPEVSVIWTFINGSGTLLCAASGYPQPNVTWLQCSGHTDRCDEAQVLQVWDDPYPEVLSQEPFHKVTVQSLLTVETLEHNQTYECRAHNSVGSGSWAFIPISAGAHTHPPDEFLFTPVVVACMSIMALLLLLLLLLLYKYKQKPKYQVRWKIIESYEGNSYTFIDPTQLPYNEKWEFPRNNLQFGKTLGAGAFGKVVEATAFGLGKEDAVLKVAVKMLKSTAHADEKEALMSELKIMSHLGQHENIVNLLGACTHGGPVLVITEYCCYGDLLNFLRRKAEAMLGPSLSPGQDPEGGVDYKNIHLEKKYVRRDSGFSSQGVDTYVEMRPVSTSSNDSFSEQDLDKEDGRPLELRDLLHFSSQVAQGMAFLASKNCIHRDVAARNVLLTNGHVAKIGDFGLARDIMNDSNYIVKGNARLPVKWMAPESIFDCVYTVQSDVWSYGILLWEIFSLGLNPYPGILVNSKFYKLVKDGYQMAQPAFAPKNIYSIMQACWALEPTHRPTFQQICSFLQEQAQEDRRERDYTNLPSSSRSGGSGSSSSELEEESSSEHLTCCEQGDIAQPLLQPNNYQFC
T4 sequence (P15056 whole entry): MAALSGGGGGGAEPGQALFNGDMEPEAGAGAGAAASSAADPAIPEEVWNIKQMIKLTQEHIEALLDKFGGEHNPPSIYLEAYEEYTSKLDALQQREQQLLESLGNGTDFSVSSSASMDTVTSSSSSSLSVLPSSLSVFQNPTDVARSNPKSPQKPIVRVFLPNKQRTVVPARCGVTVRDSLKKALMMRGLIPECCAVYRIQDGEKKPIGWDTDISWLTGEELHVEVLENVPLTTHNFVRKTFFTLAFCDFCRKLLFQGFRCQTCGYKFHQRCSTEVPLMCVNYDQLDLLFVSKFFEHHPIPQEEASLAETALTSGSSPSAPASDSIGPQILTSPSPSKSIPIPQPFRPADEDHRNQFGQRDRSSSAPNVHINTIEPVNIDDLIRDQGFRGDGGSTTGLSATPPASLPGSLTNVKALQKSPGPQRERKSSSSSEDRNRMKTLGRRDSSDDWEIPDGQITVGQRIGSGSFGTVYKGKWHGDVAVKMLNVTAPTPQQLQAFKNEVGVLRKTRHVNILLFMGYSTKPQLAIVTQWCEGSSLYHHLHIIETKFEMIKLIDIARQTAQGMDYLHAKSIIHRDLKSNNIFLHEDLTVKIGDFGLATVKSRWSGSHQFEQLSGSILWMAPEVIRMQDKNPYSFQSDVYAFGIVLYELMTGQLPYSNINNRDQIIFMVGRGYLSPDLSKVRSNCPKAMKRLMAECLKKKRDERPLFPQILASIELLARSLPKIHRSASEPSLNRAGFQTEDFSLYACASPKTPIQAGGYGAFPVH
T15 sequence (P09619 33-1106): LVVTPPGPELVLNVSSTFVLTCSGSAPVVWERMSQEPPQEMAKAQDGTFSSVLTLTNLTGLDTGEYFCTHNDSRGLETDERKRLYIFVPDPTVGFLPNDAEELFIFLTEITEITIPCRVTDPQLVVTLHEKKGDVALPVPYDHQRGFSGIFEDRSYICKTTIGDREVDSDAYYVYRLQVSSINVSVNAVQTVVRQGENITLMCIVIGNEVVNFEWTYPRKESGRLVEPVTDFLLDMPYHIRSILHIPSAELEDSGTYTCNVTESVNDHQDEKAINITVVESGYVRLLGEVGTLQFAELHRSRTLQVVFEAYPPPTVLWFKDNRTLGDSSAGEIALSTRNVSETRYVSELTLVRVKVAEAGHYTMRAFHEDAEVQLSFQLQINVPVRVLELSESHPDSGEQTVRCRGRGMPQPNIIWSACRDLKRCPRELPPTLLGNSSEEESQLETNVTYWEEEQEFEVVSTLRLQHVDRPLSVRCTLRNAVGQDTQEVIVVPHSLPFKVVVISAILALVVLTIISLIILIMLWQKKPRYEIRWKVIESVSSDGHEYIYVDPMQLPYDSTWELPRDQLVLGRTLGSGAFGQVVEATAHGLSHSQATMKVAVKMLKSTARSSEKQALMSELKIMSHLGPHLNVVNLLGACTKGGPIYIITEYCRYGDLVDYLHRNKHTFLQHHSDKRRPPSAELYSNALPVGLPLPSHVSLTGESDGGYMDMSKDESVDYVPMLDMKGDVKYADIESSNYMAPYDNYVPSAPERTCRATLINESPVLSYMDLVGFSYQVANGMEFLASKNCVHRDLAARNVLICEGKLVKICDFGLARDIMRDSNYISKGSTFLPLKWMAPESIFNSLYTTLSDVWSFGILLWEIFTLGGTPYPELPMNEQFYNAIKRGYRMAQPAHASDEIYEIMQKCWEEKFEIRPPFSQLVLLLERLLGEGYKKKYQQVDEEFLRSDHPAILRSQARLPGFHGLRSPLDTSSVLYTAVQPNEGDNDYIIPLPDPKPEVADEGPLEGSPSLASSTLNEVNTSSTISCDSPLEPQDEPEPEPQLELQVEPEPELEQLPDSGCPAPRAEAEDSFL
T18 sequence (Q9UPE1 whole entry): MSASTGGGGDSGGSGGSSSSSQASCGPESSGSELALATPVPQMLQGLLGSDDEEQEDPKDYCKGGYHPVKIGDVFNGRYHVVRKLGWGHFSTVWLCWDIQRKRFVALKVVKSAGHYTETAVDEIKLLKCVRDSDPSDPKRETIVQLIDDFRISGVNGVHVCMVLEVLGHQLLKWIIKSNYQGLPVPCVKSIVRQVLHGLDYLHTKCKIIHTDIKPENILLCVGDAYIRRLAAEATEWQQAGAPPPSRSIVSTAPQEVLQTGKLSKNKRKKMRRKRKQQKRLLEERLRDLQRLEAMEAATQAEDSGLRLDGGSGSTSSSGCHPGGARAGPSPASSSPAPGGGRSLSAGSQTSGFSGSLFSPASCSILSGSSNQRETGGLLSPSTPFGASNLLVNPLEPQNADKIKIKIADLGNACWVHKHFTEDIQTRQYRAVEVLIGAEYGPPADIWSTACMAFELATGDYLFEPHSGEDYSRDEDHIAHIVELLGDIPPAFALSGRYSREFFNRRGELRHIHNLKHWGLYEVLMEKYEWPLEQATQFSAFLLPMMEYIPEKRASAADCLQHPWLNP
T20 sequence (P10721 26-976): as the sequence (P10721 26-976 D816V) above, with V791D counted along it

CNc1ccc(NCCc2ccccc2OC)cc1.Cl [KDS12025, N^1-(2-methoxyphenethyl)-N^4-methylbenzene-1,4-diamine hydrochloride salt]
mean GFAP intensity in the GFAP-positive area [1]: fGcon (49.2±2.7, n=9), fGiD (82.5±3.6, n=9), fGiD+KDS (59.0±2.5, n=9) One-way ANOVA with Tukey's multiple comparisons test, F(2,24) = 33.23, p < 0.001 fGcon vs. fGiD, p < 0.01; fGcon vs. fGiD+KDS, p = 0.07; fGiD vs. fGiD+KDS12025 (0.1mpk), p = 0.01
remaining binding at 10 µM [2]: 73%
remaining binding at 10 µM [3]: 91%
remaining binding at 10 µM [4]: 75%
remaining binding at 10 µM [5]: 100%
remaining binding at 10 µM [6]: 68%
remaining binding at 10 µM [7]: 85%
remaining binding at 10 µM [8]: 45%
remaining binding at 10 µM [9]: 91%
remaining binding at 10 µM [10]: 72%
remaining binding at 10 µM [11]: 93%
remaining binding at 10 µM [12]: 100%
remaining binding at 10 µM [13]: 91%
remaining binding at 10 µM [14]: 92%
remaining binding at 10 µM [15]: 95%
remaining binding at 10 µM [16]: 92%
remaining binding at 10 µM [17]: 100%
remaining binding at 10 µM [18]: 74%
remaining binding at 10 µM [19]: 91%
remaining binding at 10 µM [20]: 48%
remaining binding at 10 µM [21]: 90%
remaining binding at 10 µM [22]: 100%
remaining binding at 10 µM [23]: 64%
remaining binding at 10 µM [24]: 75%
remaining binding at 10 µM [25]: 72%
Number of Hits, S(1) [26]: 0
Number of Hits, S(10) [26]: 0
Number of Hits, S(35) [26]: 0
H2O2 level normalized to RBC+H2O2 only (Fig. S20t) ([27]; 0.01 µM): 37.08±7.98
H2O2 level normalized to RBC+H2O2 only (Fig. S20t) ([27]; 0.1 µM): 20.61±3.586
H2O2 level normalized to RBC+H2O2 only (Fig. S20t) ([27]; 1 µM): 7.116±4.5
